According to patent US20070015149A1, “Prlz regulatory elements in the treatment of disease and the discovery of therapeutics” (priority 2002, published 2007):

Columns and labels:
PSA expression = assay: Androgen-activated PSA expression in LNCaP lineage cells; assay type: cell-based, human; settings: LNCaP vs C4-2 and C4-2B4 cells
Description: (§1) As an accessory sex organ, development and function of the prostate gland are controlled by androgens, through the mediation of the AR (Gelmann, J. Clin. Oncol. 20:3001-15, 2002). To investigate the possible regulation of PrLZ by androgens, we treated prostate cancer cell lines with an androgen analog, methyltrienolone (R1881, 1 nM), after androgen deprivation. Under cell culture conditions for androgen deprivation (phenol red-free RPMI1640 for 48 hours), there was a marked decline in PrLZ expression in all the prostate cancer cell lines. […] This culture system, or another like it, can be used to identify agents that modulate (by either increasing or decreasing) PrLZ expression.
By comparing the patterns of androgen-activated expression of PrLZ and PSA, it became clear that PrLZ was controlled by a regulatory mechanism that was different from the one controlling the PSA expression. […] Thus, along the transition from an AD to an AI state, there were heterologous changes in AR mediated gene regulation. While LNCAP derivative cell lines lost the mechanism of AR-controlled PSA production, they maintained the capability to regulate some other androgen responsive genes, including PrLZ.

PrLZ expression = assay: Androgen-activated PrLZ expression in prostate cancer cell lines after androgen deprivation; assay type: cell-based, human
Description: as §1
Expression studies: The 502 bp PrLZ gene-specific fragment was subcloned after PCR amplification of the PrLZ cDNA in pBK-CMV, with primers: […], and […]. The amplified DNA was cloned into pGEM-T easy (Promega) and verified by DNA sequencing. The fragment was released from the vector by EcoRi and used in hybridization reactions. Standard protocols were used in Southern and Northern blot hybridizations (Sambrook et al., Molecular cloning, a laboratory manual, Clod Spring Harbor Laboratory Press, 2001), with α-^32P-dCTP used in the labeling step. […]

[1] = tested on: expression of TPD52 members; settings: HL-60 and K-562 cells; cited from earlier work

C[C@]1(O)CC[C@H]2[C@@H]3CCC4=CC(=O)CCC4=C3C=C[C@@]21C [R1881, methyltrienolone]
PSA expression upon androgen treatment (PSA expression): androgen-dependent up-regulation only in LCNaP cells
PrLZ expression upon androgen treatment (PrLZ expression; R1881 1 nM after androgen deprivation (phenol red-free RPMI1640, 48 hours), prostate cancer cell lines): dramatically activated the expression of the PrLZ
PrLZ transcription upon androgen treatment (PrLZ expression; all LNCaP lineage cells (LNCaP, C4-2, C4-2B4)): marked PrLZ transcription

CCCCCCCCCCCCCC(=O)O[C@@H]1[C@@H](C)[C@@]2(O)[C@@H](C=C(CO)C[C@]3(O)C(=O)C(C)=C[C@@H]23)[C@H]2C(C)(C)[C@]12OC(C)=O [TPA, 12-O-trtradecanoylphorbol-13-acetate]
Expression of TPD52 members upon treatment [1]: inhibited
